melting point [°C]	Structure (SMILES)
182 to 185	NS(=O)(=O)Oc1ccc(C(=O)c2ccc(OS(N)(=O)=O)cc2)cc1
122 to 123	CC(c1ccc(-c2ccccc2)c(F)c1)c1cc(N)on1 (stereo not given)
163	CCCN(Cc1ccccc1C(=O)O)c1ccc(CC(=O)O)cc1
177 to 178	Nc1ccc(N2C(=O)CCCC2c2ccc(Cl)c(Cl)c2)cc1 (stereo not given)
242	Cc1cccc(C=NNC(=O)c2ccc(O)cc2)c1
198	CN(O)C(=O)Nc1ccc(S(C)=O)cc1 (stereo not given)
151 to 162	Cc1cn(C(C)C(=O)O)nc1-c1ccccc1 (stereo not given)
195 to 197	N#Cc1nc(N)c2ncn(C3OC(CO)C(O)C3O)c2n1 (stereo not given)
73	CCn1c(CCCO)nc(C(C)C)c1Sc1cc(Cl)cc(Cl)c1
230 to 232	Cc1ccc(-c2ccccc2C(=O)Nc2ccc(C(=O)N3C[C@@H]4CCCN4C(=O)c4ccccc43)cc2)cc1
127	Cc1cc(C)nc(NC(=O)NS(=O)(=O)c2ccsc2C(=O)O)n1
130 to 137	N#CCC(C#N)S(=O)(=O)c1ccc(Cl)cc1 (stereo not given)
91 to 96	CC(C(=O)O)c1ccc2[nH]ncc2c1 (stereo not given)
117 to 119	O=C1OCCC1Oc1ccc(-c2ccccc2)cc1[N+](=O)[O-] (stereo not given)
194 to 195	CC(C)(Cc1ccccc1)C(NC(=O)c1ccc(Cl)cc1)Nc1c(Nc2cncc(C(F)(F)F)c2)c(=O)c1=O (stereo not given)
130 to 133	O=C(O)C(Cc1ccccc1)Nc1cc(-c2ccc(OCc3ccccc3)nc2)ncn1 (stereo not given)
127 to 128	CCc1cc(C(C)O)nn1-c1ccc([N+](=O)[O-])cc1 (stereo not given)
96.5 to 98	CN1CCC(NC2c3ccccc3Oc3ccccc32)CC1
110 to 112	CCOC(=O)CCN1CCC[C@H](NCc2ccccc2OC)[C@@H]1c1ccccc1 (relative stereo)
229 to 230	CS(=O)(=O)Nc1cc2oc(C#N)c(NC=O)c(=O)c2cc1Oc1ccccc1
276 to 278	CCOCCn1cc2c(C3C(=O)Nc4ccc(Br)cc43)nc(NCCN3CCOCC3)nc2n1 (stereo not given)
88	Cc1ccc(C(=S)c2ccc(F)cc2)cc1
170 to 172	NC(=O)c1cc2c(cc1OCC1CCCCC1)CCCCC2N (stereo not given)
203 to 205	CSc1cc(C)nc(SC)c1NC(=O)CSc1nc2ccccc2o1

melting point [°C]	Structure (SMILES)
191 to 193	Cc1cc(C)c(C(O)c2cccc(-n3ccnc3)c2)c(C)c1 (stereo not given)
164	CNC(=O)n1sc(N(C)C)nc1=O
152 to 154	CN(C)CC1CCCCN1CCNC(=O)N1c2ccccc2NC(=O)c2ccccc21 (stereo not given)
165	C[C@]12C[C@H](c3ccc(OCCCCCCl)cc3)[C@@H]3c4ccc(O)cc4CC[C@H]3[C@@H]1CC[C@@H]2O
129 to 131	COc1ccc2[nH]c(SCc3ncnc(N4CCOCC4)c3C)nc2c1
148 to 149	CC(C)(C)c1ccc(C[C@@H](NC(=O)c2cccc3c(F)cccc23)[C@@H](O)c2ccc(F)cc2)cc1 (racemic)
197 to 203	CCCCCN1Cc2cccc(S(=O)(=O)NC(=O)Nc3nc(OC)cc(OC)n3)c2S1(=O)=O
233 to 236	O=C(O)c1cn(C2CC2)c2cc(N3CCC(c4cccnc4)C3)c(F)cc2c1=O (stereo not given)
119 to 123	COCC(O)COc1cccc2c1CCNC2=O (stereo not given)
142 to 144	COCCCC(=O)NNC(=O)N1Cc2ccccc2Oc2ccc(Cl)cc21
140 to 142	CCOC(=O)C1=C(CSCCNC=O)NC(C)=C(C(C)=O)C1c1cccc([N+](=O)[O-])c1 (stereo not given)
128 to 131	COc1ccnc(C(C)Sc2nc3cc(OC(F)F)c(OC)cc3[nH]2)c1 (stereo not given)
98 to 100	CC(C)c1oc(-c2ccccc2)c(-c2ccc(F)cc2)c1C=CC=O
105 to 106	[N-]=[N+]=NC(=O)C=Cc1cccc2[nH]ccc12
80.5 to 94.5	O=C1CC2OC(CS(=O)Cc3ccccc3)CN12 (racemic)
290 to 295	Cc1ccnc2c(-c3ccc(C)c4c(C)ccnc34)ccc(C)c12
186 to 188	CC(C)(C)OC(=O)NN1CCNC1=O
212 to 214	CC(=O)NC[C@H]1CN(c2ccc(N3CCC(n4nnc(-c5ccccc5)n4)CC3)c(F)c2)C(=O)O1
146 to 147	COc1c(C(=O)O)sc(C(F)(F)F)c1SCc1ccccc1
118 to 119	O=C(O)CCCCCCOc1ccc(OCc2ccccc2)cc1
99 to 101	CCC(=O)NC1CCc2ccccc2C1 (stereo not given)
60 to 63	N#Cc1cc(N)ccc1N1CCC(CCO)CC1
71	CCCCN(CCCC)S(=O)(=O)c1cc(C(=O)CCl)ccc1Cl
> 250	CC(C)NC(=O)c1nc(-c2ccccc2)c(-c2ccc(=O)[nH]n2)s1

melting point [°C]	Structure (SMILES)
227 to 229	CC(C)(O)Cn1c(CO)nc2c(N)nc3cc(-c4cccc(CO)c4)cnc3c21
126 to 127	CCCCc1nc2cccc(C(=O)OC)c2n1Cc1ccc(-c2ccccc2CO)cc1
139	O=C(CCc1cccnc1)NCCCCC1CCN(C(c2ccccc2)c2ccccc2)CC1
165 to 166	Clc1ccc(C=NN=c2ccn(-c3ccc(Cl)cc3)cc2)cc1
163 to 166	CCCCn1c(=O)c2nn(S(=O)(=O)c3cc(Cl)c(Cl)s3)cc2n(CCCC)c1=O
214 to 218	CCn1cc(C(=O)NCc2ccc(Cl)cc2)c(=O)c2cc(I)sc21
122 to 124	O=C(c1cccs1)c1cccc2c1CCC2C(=O)O (stereo not given)
96 to 100	CC(=O)Nc1c(C(=O)c2cccc(C)c2)[nH]c2cc(Cl)ccc12
185 to 186	CCc1cccc(CC)c1NC(=O)NCC1(c2ccccc2)CCCCC1
129 to 131	Fc1ccccc1-n1c(CN2CCOCC2)nnc1-c1ccc(-c2ccccc2)cc1
175 to 178	O=C(O)CCc1ccc(Sc2ccc(CCC(=O)O)cc2C(F)(F)F)c(C(F)(F)F)c1
89 to 90	COc1ccc(S(=O)(=O)NC(CCF)C(=O)OC(C)(C)C)cc1 (stereo not given)
116 to 118	C#CCOc1ccc(NCc2ccccc2)c(C(=O)c2ccc(C3CC3)cc2)c1
205	CCSc1nsc(NC(=O)NC)c1C(N)=O
188 to 191	CCC1(CCOC2CCCCO2)C(=O)NNC1=O (stereo not given)
132 to 135	COc1ccc(N(S(C)(=O)=O)S(C)(=O)=O)cc1CN1CCC(=O)C(C(c2ccccc2)c2ccccc2)C1 (stereo not given)
140 to 142	CN(c1ccc(C(C(F)(F)Cl)C(F)(F)Cl)cc1)S(C)(=O)=O
204	COc1cc2c(cc1OC)CN(c1nc(N)c3cc(OC)c(OC)c(OC)c3n1)CC2
189 to 190	O=[N+]([O-])c1cn2c(n1)O[C@@H](COc1ccc(N3CCC(Nc4ccc(OC(F)(F)F)cc4)CC3)cc1)CC2
92 to 93	FC(F)(F)c1cccc(C(CC2=NCCN2)c2ccc3ccccc3n2)c1 (stereo not given)
136 to 137	FC(F)(F)c1cccc(C(Cl)=Nc2nc(C(F)(F)F)c(I)s2)c1
103 to 104	N#CC(=NO)c1cccs1
124 to 125	CCCC(=O)c1cc2c(c(Cl)c1Cl)OC(C(=O)O)C2 (stereo not given)
243 to 245	O=C1NCC(c2ccsc2)SCC1N1C(=O)c2ccccc2C1=O (stereo not given)

melting point [°C]	Structure (SMILES)
143 to 145	O=C(/C=C/C=C/c1cccc2ccccc12)NCCCCCC(=O)NO
156	C=CCOc1cc(-c2cc(=O)c3c(OC)cc(OCC4=COC(C)(C)O4)cc3o2)ccc1OC
229 to 231	Cc1nc(-c2ccc(-c3ccc(C(=O)O)cc3)c(C)c2)no1
132 to 135	CCOC(=O)c1c(Cl)c2cccnc2n(C)c1=O
191 to 194	N#Cc1[nH]c(Br)c(-c2ccc(Cl)cc2)c1Br
157 to 158	O=C1C(c2ccccc2)=C(c2ccccc2)C(=O)N1c1cccc(F)c1
201 to 205	O=S1(=O)N=C(NCCCCc2ccccc2)Nc2cc(Cl)sc21
97 to 98	O=C(O)CCCCCOc1cccc(CCCCCCOc2ccc3c(c2CCCc2ccccc2)OCCC3=O)c1CCC(=O)O
124 to 126	CS(=O)(=O)c1ccc(C(CC2CCCC2)C(=O)Nc2nc(CO)cs2)cc1 (stereo not given)
52 to 53	CCCCCC(CC(=O)Nc1cc(CCC(=O)O)ccc1C(C)(C)C)c1c(OC)cccc1OC (stereo not given)
107	CCC(=O)c1ccc(CCNS(=O)(=O)c2ccc(OC)cc2)cc1
181	CCCCc1c(C(=O)c2ccc(O)cc2)[nH]c2ccc([N+](=O)[O-])cc12
130 to 131	CC(C)(C)OC(=O)NC(Cc1ccccc1)C(=O)OC(Cc1c[nH]cn1)C(=O)O (stereo not given)
140 to 141	CC(C)(Cl)C(CCN1C(=O)c2ccccc2C1=O)N=O (stereo not given)
213 to 214	C[C@H](O)C(=O)Nc1c(C(=O)c2cc(CO)co2)[nH]c2cc(Cl)ccc12
115 to 118	Cc1ccc(-c2ccccc2C(=O)Nc2ccc(C(=O)N(CCO)c3ccccc3C)cc2)cc1
233	CC(C)(C)C(=O)Nc1cc2c(O)n(I)c(I)nc-2n1
208 to 209	CC(C)C1(C)N=C(c2nc3ccc(OC(F)F)cc3cc2C(=O)O)NC1=O (stereo not given)
140	CN(C)c1ncc(C(=O)N2CCOC(c3cccc(O)c3)C2)c(-c2ccccc2)n1 (stereo not given)
200 to 202	Nc1c(Br)cc(C(=O)CCC(=O)O)cc1Br
88 to 89	O=[N+]([O-])c1ccc2ccccc2c1NCC12CCCN1CCC2

Structure (SMILES)	melting point [°C]
COc1ccc(COCc2nnc3n2-c2ccc(Cl)cc2C(c2ccccc2)=NC3)cc1	157 to 159
O=C(NC1CN2CCC1CC2)C(O)(c1cccs1)c1cccs1 (stereo not given)	169
CC(=O)NN=C1CC2(CCN(C)CC2)OC1C (stereo not given)	164 to 167
CC(=O)OC1CC2CCC3C(CCC4(C)C3CC(N3CCN(C)CC3)C4OC(C)=O)C2(C)CC1N1CCCCC1 (stereo not given)	95 to 98
CNC(=O)ON=C1SCC(=O)N1C(C)C	94 to 96
CCCCCC(O)C1C(=O)NC(C(=O)SCCNC(C)=O)(C(O)C2C=CCCC2)C1(C)O (stereo not given)	80
NC(=NO)c1ncn2c1[C@@H]1CCN1C(=O)c1cc(F)ccc1-2	248 to 250

Source: a melting point compilation (Tetko et al.; mined from patent text by program, amines drawn as free bases though some values may be those of a salt)
